The text below walks through data of patent US7550469B2, “Heterocyclic amide derivatives and their use as dopamine D3 receptor ligands” (Aventis Pharmaceuticals Inc., priority 2001, dated 2009).

Molecules are shown by their SMILES.

T1 sequence (P35462 whole entry): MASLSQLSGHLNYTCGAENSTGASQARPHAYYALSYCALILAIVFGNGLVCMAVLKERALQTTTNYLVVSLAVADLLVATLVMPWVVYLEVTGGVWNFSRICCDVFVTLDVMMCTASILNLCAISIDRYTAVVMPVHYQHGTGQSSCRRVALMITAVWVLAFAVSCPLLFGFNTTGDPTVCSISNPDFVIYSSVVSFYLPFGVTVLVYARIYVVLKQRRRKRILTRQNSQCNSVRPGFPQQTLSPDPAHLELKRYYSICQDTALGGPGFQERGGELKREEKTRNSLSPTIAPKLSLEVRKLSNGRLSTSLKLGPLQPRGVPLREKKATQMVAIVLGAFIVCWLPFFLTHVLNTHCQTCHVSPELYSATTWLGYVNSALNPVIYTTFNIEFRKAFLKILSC

One test concerns the target T1, cloned human dopamine D3 receptors (Homo sapiens, UniProt P35462).
T1 construct: expressed in transfected cells; membrane homogenate
The experiment in a line: [N-Methyl-3H]Spiroperidol binding to cloned human dopamine D3 receptors (Protocol 1). Conditions: Table 2; read-out: D3K1. From the text:
[N-Methyl-^3H]Spiroperidol Binding to Cloned Human Dopamine D3 Receptors
This assay measures the in vitro activity of compounds on cloned human dopamine (D3) receptors and predicts the direct dopamine-blocking properties of putative neuropsychiatric agents at human dopamine D3 receptors.
The D3 gene was isolated from a human striatal cDNA library (Stratagene). The gene was sequenced and sub-cloned into the expression vector RC/RSV (Invitrogen). CHO (Chinese Hamster Ovary) cells were stably transfected with 10 μg of the D3/RSV plasmid using the DOTAP method from Boehringer Mannheim and 72 clones that were G418 resistant were isolated. Using mRNA and binding displacement data a single high expressing clone was identified. This clone was then grown in large batches for the purpose of developing a 96 well format assay.
• 1. One plate (10 cm) with approximately 2-3 million D3 cells per plate is incubated with 1 ml of Trypsin-EDTA at room temperature for ˜2 min or until cells have lifted off plates. Four ml of Ham's F12+10% Fetal Bovine Serum+1% Penicillin/Streptomycin+G418 (400 μg/ml) medium are added to resuspend cells and 1 ml of this is added to each large plate (15 cm) containing 19 ml of the-same medium as mentioned above. • 2. The 5 large plates are incubated at 37° C.+5% CO2 for ˜3 days or until the cells are confluent. • 3. After these plates are confluent, they are split into 10 large plates. Medium is aspirated off, 2 ml of Trypsin-EDTA are added to each plate and plates are incubated at RT for 2 min or until cells have lifted off the plate. Eight ml of the F12 medium (same medium as #1 above) are added to each plate (10 ml total) to resuspend the cells and 5 ml are transferred to the 2 new plates containing 15 ml of the F12 media. • 4. The 10 large plates are incubated at 37° C.+5% CO2 for ˜2 days or until the cells are confluent. • 5. The 10 large plates are split into 60 large plates (using Trypsin-EDTA as #3 except 4 ml of F12 medium are added to resuspend cells and 1 ml is aliquoted to 6 new plates containing 19 ml of F12 medium each). • 6. Plates are incubated at […]+5% CO2 for ˜3 days or until cell are confluent. • 7. The 60 large plates are then split into 60 roller bottles (100-150 million cells/bottle). Medium is aspirated off, 2 ml of Trypsin-EDTA are added to each plate and incubated at RT for ˜2 minutes or until cells have lifted off plates. Eight ml of F12 medium are added to each plate to resuspend cells and the entire 10 ml are added to 1 roller bottle containing 90 ml of the F12 medium. • 8. The 60 roller bottles are immediately placed on their sides and transferred to the roller bottle incubator. They are incubated at 37° C.+5% CO2 for ˜3-5 days. Cells are spun at 30-40% motor speed in the Forma incubator. • 9. Medium is poured off and cells are washed 2× in PBS. • 10. Cells are then scraped off in 20 ml of PBS and the bottles are rinsed again with 5 ml of PBS to remove any remaining cells. Cells are stored on ice before membrane preparation. • 11. The yield for 60 D3 roller bottles has varied from ˜260-500 mg. • Note: All tissue culture reagents are from Gibco-BRL. C. Membrane Preparation
The cells are harvested into 250 ml centrifuge tubes with 100 volumes of cold phosphate buffered saline (PBS) and spun down (1200×G for 10 min at 4° C.). The medium is removed and 100 ml PBS are added to each centrifuge tube, cells are resuspend and spun down again. The PBS is removed and the final pellet is homogenized in an appropriate volume of 10% DMSO with a polytron on ice at a medium setting.
1. 0.5M Tris Buffer, pH 7.7 • a) 44.4 g Tris HCl 26.5 g Tris Base q.s. to 1 Liter (0.5 M Tris buffer, pH 7.7 at 37° C.) • b) make a 1:10 dilution in distilled H2O (0.05 M. Tris buffer, pH 7.7) 2. Tris Buffer Containing Physiological Salts • a) Stock buffer • NaCl 7.014 g • KCl 0.372 g • CaCl2 0.222 g • MgCl2 0.204 g • q.s. To 100 ml with 0.5 M. Tris Buffer • b) Dilute 1:10 in distilled H2O […]
Take `O=C(NCC(CO)CCN1CCN(c2csc3cc(C(F)(F)F)ccc23)CC1)c1cccc(C(=O)c2ccccc2)c1` (single isomer, unassigned) [818912ES]: the Ki stood at 249 nM.
On the same count and under the same terms, next, `O=C(NCCC(CO)CN1CCN(c2csc3cc(C(F)(F)F)ccc23)CC1)c1ccc2ccccc2c1` (stereo not drawn) [818619ES]: 324 nM; `O=C(NCCC(CO)CN1CCN(c2csc3cc(C(F)(F)F)ccc23)CC1)c1ccc2[nH]ccc2c1` (stereo not drawn) [818620ES]: 246 nM.
On to `Cc1c(C(=O)NCCC(CO)CN2CCN(c3csc4cc(C(F)(F)F)ccc34)CC2)cnn1-c1ccccc1` (stereo not drawn) [818634ES], for which the Ki stood at 305 nM.
On the same count and under the same terms, next, `Cc1ccc(C(=O)NCC(CO)CCN2CCN(c3csc4cc(C(F)(F)F)ccc34)CC2)cc1` (stereo not drawn) [818921ES]: 331 nM.
On the same count and under the same terms, for `O=C(NCC(CO)CCN1CCN(c2csc3cc(C(F)(F)F)ccc23)CC1)c1c(F)cc(F)cc1F` (stereo not drawn) [818923ES] the value was 319 nM; for `O=C(NCC(CO)CCN1CCN(c2csc3cc(C(F)(F)F)ccc23)CC1)c1ccco1` (stereo not drawn) [818924ES], 318 nM; for `O=C(NCC(CO)CCN1CCN(c2csc3cc(C(F)(F)F)ccc23)CC1)c1ccoc1` (stereo not drawn) [818925ES], 293 nM.
Same read-out and setting: for `O=C(NCC(CO)CCN1CCN(c2csc3cc(C(F)(F)F)ccc23)CC1)c1cccs1` (stereo not drawn) [818926ES] the value was 206 nM; for `O=C(NCC(CO)CCN1CCN(c2csc3cc(C(F)(F)F)ccc23)CC1)c1ccsc1` (stereo not drawn) [818927ES], 164 nM; for `O=C(NCC(CO)CCN1CCN(c2csc3cc(C(F)(F)F)ccc23)CC1)c1cn[nH]c1` (stereo not drawn) [818928ES], 158 nM.
Regarding `O=C(NCC(CO)CCN1CCN(c2csc3cc(C(F)(F)F)ccc23)CC1)c1ccc2ccccc2c1` (stereo not drawn) [818929ES], the Ki turned out to be 201 nM.
With `O=C(NCC(CO)CCN1CCN(c2csc3cc(C(F)(F)F)ccc23)CC1)c1cc2ccccc2[nH]1` (stereo not drawn) [818930ES], the Ki worked out at 79.3 nM.
Same read-out and setting: next, `O=C(NCC(CO)CCN1CCN(c2csc3cc(C(F)(F)F)ccc23)CC1)c1ccc2[nH]ccc2c1` (stereo not drawn) [818931ES]: 97.2 nM.
As to `O=C(NCC(CO)CCN1CCN(c2csc3cc(C(F)(F)F)ccc23)CC1)c1cc2ccccc2o1` (stereo not drawn) [818932ES], the Ki worked out at 207 nM.

Still in this test, the particulars now being: read-out: D3K1.
For the compound `CC1(C)C(CNC(=O)C2CC2c2ccccc2)C1CN1CCN(c2csc3cc(C(F)(F)F)ccc23)CC1` (mixture of isomers) [compound 826283], the Ki came out at 6.8 nM.
With `O=C(NCCCCN1CCN(c2csc3cc(C(F)(F)F)ccc23)CC1)c1cccs1` [81708A], the Ki is 4.5 nM.

The test is the same for the next values; noted with them: the 17th table; read-out: D3 Ki.
As to `O=C(c1ccc(F)cc1)N(Cc1ccccc1)CC1CC1CN1CCCN(c2csc3cc(F)ccc23)CC1` (racemic) [compound 830393], the Ki came out at 21.8 nM.
Same read-out and setting: next, `COc1ccc(C(=O)N(Cc2ccccc2)CC2CC2CN2CCCN(c3csc4cc(F)ccc34)CC2)cc1` (racemic) [compound 830394]: 10.7 nM; `CCCCc1ccc(C(=O)N(Cc2ccccc2)CC2CC2CN2CCCN(c3csc4cc(F)ccc34)CC2)cc1` (racemic) [compound 830395]: 27.6 nM.
The same measure, in the same setting: for `COc1cc(OC)cc(C(=O)N(Cc2ccccc2)CC2CC2CN2CCCN(c3csc4cc(F)ccc34)CC2)c1` (racemic) [compound 830396] the value was 16.5 nM; for `O=C(c1ccc(-c2ccccc2)cc1)N(Cc1ccccc1)CC1CC1CN1CCCN(c2csc3cc(F)ccc23)CC1` (racemic) [compound 830397], 55.4 nM; for `O=C(c1cc2ccccc2s1)N(Cc1ccccc1)CC1CC1CN1CCCN(c2csc3cc(F)ccc23)CC1` (racemic) [compound 830398], 15.9 nM.
Turning to `Cc1ccc(C(=O)NCC2CC2CN2CCCN(c3csc4cc(F)ccc34)CC2)cc1` (racemic) [compound 830403], the Ki turned out to be 59.9 nM.
Still for that read-out and setting: for `O=C(NCC1CC1CN1CCCN(c2csc3cc(F)ccc23)CC1)c1ccc(C(F)(F)F)cc1` (racemic) [compound 830404] the value was 51.9 nM; for `COc1ccc(C(=O)NCC2CC2CN2CCCN(c3csc4cc(F)ccc34)CC2)cc1` (racemic) [compound 830405], 1.65 nM; for `O=C(NCC1CC1CN1CCCN(c2csc3cc(F)ccc23)CC1)c1ccc(-c2ccccc2)cc1` (racemic) [compound 830406], 27 nM.
Still for that read-out and setting: for `O=C(NCC1CC1CN1CCCN(c2csc3cc(F)ccc23)CC1)c1cc2ccccc2s1` (racemic) [compound 830407] the value was 10.4 nM.

Still in this test, the particulars now being: the 18th table; read-out: D3 Ki.
Take `O=C(NCc1sccc1CN1CCN(c2csc3cc(F)ccc23)CC1)c1ccc(-c2ccccn2)s1` [818320G]: the Ki is 11.2 nM.
Same read-out and setting: next, `O=C(NCc1sccc1CN1CCN(c2csc3cc(F)ccc23)CC1)c1cc2ccccc2s1` [818321G]: 78.7 nM.

The test is the same for the next values; noted with them: the 23rd table; read-out: D3 Ki.
On to `CC1CCCCN1CCCNC[C@@H]1C[C@H]1CN1CCN(c2csc3cc(C(F)(F)F)ccc23)CC1` (mixture of isomers) [compound 832277], for which the Ki amounted to 29.4 nM.
Consider `CCC1CCCC1NC[C@@H]1C[C@H]1CN1CCN(c2csc3cc(C(F)(F)F)ccc23)CC1` (mixture of isomers) [compound 832278], for which the Ki came to 19 nM.
Same read-out and setting: next, `c1cc2onc(C3CCN(CC4CC4CN4CCC(c5noc6ccsc56)CC4)CC3)c2s1` (racemic) [831205DA]: 6.38 nM; `c1ccc(OCCNCC2CC2CN2CCC(c3noc4ccsc34)CC2)cc1` (racemic) [832296FH]: 126 nM.
On the same count and under the same terms, next, `Clc1ccc(CN2CCN(CC3CC3CN3CCC(c4noc5ccsc45)CC3)CC2)cc1Cl` (racemic) [832297GW]: 393 nM; `OC1CCC(NCC2CC2CN2CCN(c3csc4cc(C(F)(F)F)ccc34)CC2)CC1` (racemic) [832390FH]: 21.8 nM.
The same measure, in the same setting: for `COc1ccc(CNCC2CC2CN2CCN(c3csc4cc(C(F)(F)F)ccc34)CC2)cc1` (racemic) [compound 831909] the value was 41.5 nM; for `FC(F)(F)Oc1cccc(CNCC2CC2CN2CCN(c3csc4cc(C(F)(F)F)ccc34)CC2)c1` (racemic) [compound 832181], 16 nM.
Turning to `CC(C)c1ccc(CNCC2CC2CN2CCN(c3csc4cc(C(F)(F)F)ccc34)CC2)cc1` (racemic) [compound 832182], the Ki was 98 nM.
`FC(F)(F)c1ccc2c(N3CCN(CC4CC4CN4CCC(N5CCCC5)CC4)CC3)csc2c1` (racemic) [compound 832568]: the Ki came out at 46.2 nM.
Consider `O=C1NCCN1CCNCC1CC1CN1CCN(c2csc3cc(C(F)(F)F)ccc23)CC1` (racemic) [compound 832609], for which the Ki is 39.6 nM.
With `Cc1nc(Cl)c(Cl)n1CCCNCC1CC1CN1CCN(c2csc3cc(C(F)(F)F)ccc23)CC1` (racemic) [compound 832644], the Ki turned out to be 97.5 nM.
The same measure, in the same setting: for `FC(F)(F)c1ccc2c(N3CCN(CC4CC4CNCCCN4CCCCC4)CC3)csc2c1` (racemic) [compound 832659] the value was 28.3 nM.

The same test, now with this note: the 24th table; read-out: D3 Ki.
`O=S(=O)(NC[C@@H]1C[C@H]1CN1CCN(c2csc3cc(C(F)(F)F)ccc23)CC1)c1ccc(F)cc1` (racemic) [compound 831495, 4-Fluoro-N-{2R-[4-(6-trifluoromethyl-benzo[b]thiophen-3-yl)-piperazin-1-ylmenthyl]-1R-cyclopropylmethyl}-benzenesulfonamide]: the Ki was 35.1 nM.
Same read-out and setting: next, `CC(C)(C)c1ccc(S(=O)(=O)NCC2CC2CN2CCN(c3csc4cc(C(F)(F)F)ccc34)CC2)cc1` (racemic) [compound 831591]: 93.3 nM.
